Source: article PMC6981581, “N-(2-Arylmethylthio-4-Chloro-5-Methylbenzenesulfonyl)amide Derivatives as Potential Antimicrobial Agents—Synthesis and Biological Studies” (International Journal of Molecular Sciences, 2019)
≈ marks a conversion by molar mass, not a printed value. Where “and” joins values, the source holds several entries; their conditions need not be identical. Equal entries are not always repeated. Where two headings read alike, the source gives them in different places.

Legend:
Assay type in all cases: cell-based
[1] = tested on: Enterococcus faecalis ATCC 11420; experiment: Broth dilution MIC/MBC, reference strain
Method: (§1) The tests were carried out using a serial dilution method, allowing the determination of MIC (minimal concentration inhibiting bacterial growth), MBC (minimal bactericidal concentration), and MFC (minimal fungicidal concentration) values.
(§2) Antimicrobial activity was tested using the following reference strains: Staphylococcus aureus ATCC 6538 (MSSA), Staphylococcus aureus ATCC 43300 (MRSA), Staphylococcus epidermidis PCM 2118, Escherichia coli ATCC 11229, Pseudomonas aeruginosa ATCC 15442, Proteus vulgaris NCTC 4635, Enterococcus faecalis ATCC 11420, and Candida albicans ATCC 10231.
(§3) A broth dilution method was used to determine minimal inhibitory concentration (MIC) for tested compounds as recommended by Clinical Laboratory Standards Institute (CLSI) guidelines. Investigated compounds were diluted in Mueller Hinton Broth 2 (Sigma-Aldrich Co., St. Louis, MO, USA) in polypropylene 96-well plates and initial inoculum 5 × 10^5 cfu/mL were incubated at 37 °C for 18 h. MIC was taken as the lowest drug concentration at which an observable growth was inhibited. […] The loopful (10 µL) of the tested sample was transferred to Tryptic Soy Agar (TSA, Becton-Dickinson, Franklin Lakes, NJ, USA) and incubated at 37 °C for 48 h. […] Drug Solutions were made fresh on the day of the assay. All experiments were performed in triplicate.

[2] = tested on: Escherichia coli ATCC 11229; experiment: Broth dilution MIC/MBC, reference strain
Method: as §1, §2, §3

[3] = tested on: Proteus vulgaris NCTC 4635; experiment: Broth dilution MIC/MBC, reference strain
Method: as §1, §2, §3

[4] = tested on: Pseudomonas aeruginosa ATCC 15442; experiment: Broth dilution MIC/MBC, reference strain
Method: as §1, §2, §3

[5] = tested on: Staphylococcus aureus ATCC 43300 (MRSA); experiment: Broth dilution MIC/MBC, reference strain
Method: as §1, §2, §3

[6] = tested on: Staphylococcus aureus ATCC 6538 (MSSA); experiment: Broth dilution MIC/MBC, reference strain
Method: as §1, §2, §3

[7] = tested on: Staphylococcus epidermidis PCM 2118; experiment: Broth dilution MIC/MBC, reference strain
Method: as §1, §2, §3

[8] = tested on: Candida albicans ATCC 10231; experiment: Broth dilution MIC/MFC, reference fungal strain
Method: as §1, §2, §3

[9] = tested on: HaCaT cell line (human keratinocyte); experiment: MTT cell viability assay; settings: MTT assay, 72 h incubation, mean ± SD, read-out: IC50 HaCaT
[10] = tested on: HCT-116 (colon cancer); experiment: MTT cell viability assay; settings: Homo sapiens, 72 h incubation, mean ± SD
Method: (§4) Analysis was performed using the MTT test and 72 h of incubation.
(§5) All chemicals were obtained from Sigma-Aldrich (St. Louis, MO, USA). The MCF-7 and HeLa cell lines were purchased from Cell Lines Services (Eppelheim, Germany), the HCT-116 cell line was purchased from ATCC (ATCC-No: CCL-247). Cells were cultured in Dulbecco’s modified Eagle’s medium (DMEM) supplemented with 10% fetal bovine serum, 2 mM glutamine, 100 units/mL penicillin, and 100 μg/mL streptomycin. Cultures were held in an incubator (Heraceus, HeraCell) in a humidified atmosphere with 5% CO2 at 37 °C.
(§6) Cell viability was evaluated using the MTT (3-(4,5-dimethylthiazol-2-yl)-2,5-diphenyltetrazolium bromide) assay. Stock solutions of the studied compounds were obtained in 100% DMSO. […] Cells at a density of 5 × 10^3 cells/well, seeded in 96-well plates, were treated for 72 h with the tested compounds in the concentration range 1–100 μM (1, 10, 25, 50 and 100 μM). After treatment, cells were incubated for 2 h with MTT (0.5 mg/mL) at 37 °C. Cells were lysed with DMSO and the absorbance of the formazan solution was measured at 550 nm with a plate reader (1420 multilabel counter, Victor, Jügesheim, Germany). Values are expressed as the mean ± SD of at least three independent experiments conducted in triplicate.

[11] = tested on: HeLa (cervical cancer); experiment: MTT cell viability assay; settings: Homo sapiens, 72 h incubation, mean ± SD
Method: as §4, §5, §6

[12] = tested on: MCF-7 (breast cancer); experiment: MTT cell viability assay; settings: Homo sapiens, MCF7, 72 h incubation, mean ± SD
Method: as §4, §5, §6

Cc1cc(S(=O)(=O)NC(=O)C=Cc2ccccc2)c(SCc2cccc(C(F)(F)F)c2)cc1Cl [Compound 15, N-[4-Chloro-5-methyl-2-(3-trifluoromethylbenzylthio)benzenesulfonyl]cinnamamide]
MBC/MIC ([1]; E. f. ATCC 11420): >8
MBC ([1]; Enterococcus faecalis, ATCC11420, E. faecalis ATCC 11420, read-out: MBC): > 128 µg/mL
MIC ([1]; Enterococcus faecalis, ATCC11420, E. faecalis ATCC 11420, read-out: MIC): 16 µg/mL (≈ 30.4 µM)
MBC/MIC ([2]; E. c. ATCC 11229): 1
MBC ([2]; Escherichia coli, ATCC11229, E. coli ATCC 11229, read-out: MBC): 128 µg/mL (≈ 243 µM)
MIC ([2]; Escherichia coli, ATCC11229, E. coli ATCC 11229, read-out: MIC): 128 µg/mL (≈ 243 µM)
MBC/MIC ([3]; P. v. NCTC 4635): >2
MBC ([3]; Proteus vulgaris, NCTC4635, P. vulgaris NCTC 4635, read-out: MBC): > 128 µg/mL
MIC ([3]; Proteus vulgaris, NCTC4635, P. vulgaris NCTC 4635, read-out: MIC): 64 µg/mL (≈ 122 µM)
MBC/MIC ([4]; P. a. ATCC 15442): 2
MBC ([4]; Pseudomonas aeruginosa, ATCC15442, P. aeruginosa ATCC 15442, read-out: MBC): 128 µg/mL (≈ 243 µM)
MIC ([4]; Pseudomonas aeruginosa, ATCC15442, P. aeruginosa ATCC 15442, read-out: MIC): 64 µg/mL (≈ 122 µM)
MBC/MIC ([5]; S. a. ATCC 43300): 16
MBC ([5]; Staphylococcus aureus, S. aureus ATCC 43300, read-out: MBC): 128 µg/mL (≈ 243 µM)
MIC ([5]; Staphylococcus aureus, S. aureus ATCC 43300, read-out: MIC): 8 µg/mL (≈ 15.2 µM)
MBC/MIC ([6]; S. a. ATCC 6538): 16
MBC ([6]; Staphylococcus aureus, S. aureus ATCC 6538, read-out: MBC): 128 µg/mL (≈ 243 µM)
MIC ([6]; Staphylococcus aureus, S. aureus ATCC 6538, read-out: MIC): 8 µg/mL (≈ 15.2 µM)
MBC/MIC ([7]; S. e. PCM 2118): 1
MBC ([7]; S. epidermidis PCM 2118): 8 µg/mL (≈ 15.2 µM)
MBC ([7]; Staphylococcus epidermidis, PCM2118, S. epidermidis PCM 2118, read-out: MBC): 4 to 16 µg/mL (≈ 7.6 to 30.4 µM)
MIC ([7]; Staphylococcus epidermidis, PCM2118, S. epidermidis PCM 2118, read-out: MIC): 8 µg/mL (≈ 15.2 µM)
MFC/MIC ([8]; C. a. ATCC 10231): 2
MFC ([8]; Candida albicans, ATCC10231, C. albicans ATCC 10231, read-out: MFC): 128 µg/mL (≈ 243 µM)
MIC ([8]; Candida albicans, ATCC10231, C. albicans ATCC 10231, read-out: MIC): 64 µg/mL (≈ 122 µM)
IC50 [9]: 79 µg/mL and 150 µM
IC50 [10]: 86 ± 2 µM
IC50 [11]: 165 ± 9 µM
IC50 [12]: 93 ± 3 µM
